{"source": "ChEMBL document CHEMBL3608205", "about": "“Eight new cycloartane triterpenoids from Beesia calthifolia with hepatoprotective effects against D-galactosamine induced L02 cell damage” (Bioorg Med Chem Lett, 2015)", "note": "pEC50: −log10 of the molar value."}
{"system": "L02", "assay": "(§1) Hepatoprotective activity in human L02 cells assessed as reduction in D-galactosamine-induced cell damage at 0.1 to 1000 uM pre-incubated at 37 degC for 24 hrs before D-galactosamine challenge for 24 hrs by SRB method", "type": "functional, cell-based", "conditions": "Homo sapiens, L02; read-out: EC50; call rule not given here"}
{"smiles": "CC(C)(O)[C@H]1CC[C@@](C)([C@H]2[C@@H](O)[C@H](O)[C@@]3(C)[C@@H]4CC[C@H]5C(C)(C)[C@@H](O[C@@H]6OC[C@@H](O)[C@H](O)[C@H]6O)CC[C@@]56C[C@@]46C[C@H](O)[C@]23C)O1", "pEC50": 4.15}
{"smiles": "CC(=O)O[C@H]1[C@H](OC(C)=O)[C@@]2(C)[C@@H]3CC[C@H]4C(C)(C)[C@@H](O)CC[C@@]45C[C@@]35C[C@@H](O)[C@]2(C)[C@H]1[C@]1(C)CC[C@H](C(C)(C)O)O1", "note": "(mixture of isomers)", "pEC50": 4.97}
{"smiles": "CC(C)(O)[C@H]1CC[C@@](C)([C@H]2C(=O)[C@H](O)[C@@]3(C)[C@@H]4CC[C@H]5C(C)(C)[C@@H](O[C@@H]6OC[C@@H](O)[C@H](O)[C@H]6O)CC[C@@]56C[C@@]46C[C@H](O)[C@]23C)O1", "note": "(relative stereo)", "pEC50": 4.10}
{"smiles": "CC(C)(O)[C@H]1CC[C@@](C)([C@H]2[C@@H](O)[C@H](O)[C@@]3(C)[C@@H]4CC[C@H]5C(C)(C)[C@@H](O[C@@H]6OC[C@@H](O)[C@H](O)[C@H]6O)CC[C@@]56C[C@@]46C[C@H](O)[C@]23CO)O1", "note": "(relative stereo)", "pEC50": 4.31}
{"smiles": "CC(C)(O)[C@H]1CC[C@@](C)([C@H]2[C@@H](O)[C@H](O)[C@@]3(C)[C@@H]4CC[C@H]5C(C)(C)[C@@H](O[C@@H]6OC[C@@H](O)[C@H](O)[C@H]6O)CC[C@@]56C[C@@]46C[C@@H](O)[C@]23C)O1", "note": "(relative stereo)", "pEC50": 4.21}
{"system": "L02", "assay": "as §1", "type": "functional, cell-based", "conditions": "l02"}
{"smiles": "CC(=O)OC[C@]12CC[C@@]34C[C@@]35CC[C@H](O[C@@H]3OC[C@@H](O)[C@H](O)[C@H]3O)C(C)(C)[C@@H]5CC[C@H]4[C@]1(C)[C@@H](O)[C@H](OC(C)=O)[C@@H]2[C@]1(C)CC[C@H](C(C)(C)O)O1", "EC50": "Not Active"}
{"smiles": "CC(=O)O[C@H]1[C@H](O)[C@H]([C@]2(C)CC[C@H](C(C)(C)O)O2)[C@@]2(C)CC[C@@]34C[C@@]35CC[C@H](O[C@@H]3OC[C@@H](O)[C@H](O)[C@H]3O)C(C)(C)[C@@H]5CC[C@H]4[C@]12C", "EC50": "Not Active"}
{"smiles": "CC(C)(O)[C@H]1CC[C@@](C)([C@H]2C(=O)[C@H](O)[C@@]3(C)[C@@H]4CC[C@H]5C(C)(C)[C@@H](O)CC[C@@]56C[C@@]46C[C@H](O)[C@]23C)O1", "note": "(relative stereo)", "EC50": "Not Active"}
